Values quoted from earlier work, collected in patent US8623415B2, “Method for producing biologically ingestible microparticles, biologically ingestible microparticles, and dispersion and pharmaceutical composition containing the same” (M. Technique Co., Ltd., priority 2007, dated 2014).
Read-outs that look alike come from different tables or passages of the source.

What was measured:
[1] = dissolved in an aqueous solution of pH 6 or higher

biological availability (BA) (commercial product (average particle diameter 10 μm) administered to a dog as a suspension) [%]	biological availability (BA) (nano-suspension, average particle diameter 169 nm, dog) [%]	stability in aqueous solution [1]	Compound
5.1	82.3	–	C#C[C@]1(O)CC[C@H]2[C@@H]3CCC4=Cc5oncc5C[C@]4(C)[C@H]3CC[C@@]21C [danazol, 17-α-pregno-2,4-diene-20-ino-[2,3-d]-isoxazol-17-ol (danazol)]
–	–	hydrolyzed	O=C(O)c1cc(O)c2c3nc4ccccc4oc-3cc(=O)c2n1 [pirenoxine]
